Common to all, as to format: in vitro ADME
Series [1] is described as follows: Plasma Stability Assay (Example A3), rat plasma. The note with it: 10 μM, 37° C., prodrug remaining. The text has this: (§1) The data is represented in the table below.
A short description of series [2]: Plasma Stability Assay (Example A3), human plasma. The note with it: 10 μM, 37° C., prodrug remaining.
Source text: as §1

A short description of series [3]: Metabolic Stability in Human Hepatocytes. The note with it: cryopreserved human hepatocytes, 5×10^5 viable cells/mL, 37° C. How it is done:
A 2.5 uL aliquot of 100 μM test compound was incubated with 247.5 uL of cryopreserved hepatocytes suspended in serum-free incubation medium at 5×10^5 viable cells/mL. The mixture was incubated at 37° C. and shaken at 500 rpm for the designated time points (0.5, 15, 30, 60, 90, or 120 min). At each time point, 25 μL aliquot of incubation mixture was transferred to 125 μL of cold acetonitrile containing internal standard, followed by centrifugation for 30 min at 3,220 g. 100 μL of supernatant was mixed with 100 μL of distilled water for analysis by LC-MS/MS. Peak areas were determined from extracted ion chromatograms and in vitro half-life (t1/2) was determined from the concentration vs time regression slope, in vitro t1/2=0.693/k. Conversion of the in vitro t1/2 (in min) into the in vitro intrinsic clearance (in vitro CLint, in μL/min/10^6 cells) is done using: in vitro CLint=kV/N.

The structures appear in SMILES notation.

For the compound `COc1ccc([C@@]23CCC(OP(=O)(O)OCOC(=O)C(C)(C)C)=C[C@@H]2N(C)CC3)cc1OC` [Compound 409, [[(3aS,7aS)-3a-(3,4-dimethoxyphenyl)-1-methyl-3,4,5,7a-tetrahydro-2H-indol-6-yl]oxy-hydroxy-phosphoryl]oxymethyl 2,2-dimethylpropanoate], the “Prodrug (%)” value in series [1] (0 min) was determined as 100.0%; in series [1] (10 min), 89.9%; in series [1] (30 min) it was 81.2%; in series [1] (60 min) it was 71.0%; in series [1] (120 min), 44.5%; in series [1] (240 min) it was 22.7%. For the same compound, the “Prodrug (%)” value in series [2] (0 min) is given as 100.0%; in series [2] (10 min), above 99%; in series [2] (30 min) it was 95.2%; in series [2] (60 min) it was 93.0%; in series [2] (120 min) it was 87.3%; in series [2] (240 min) it was 75.8%.
Consider `COc1ccc([C@@]23CCC(OP(=O)(O)OCOC(=O)OC(C)C)=C[C@@H]2N(C)CC3)cc1OC` [Compound 410, [[(3aS,7aS)-3a-(3,4-dimethoxyphenyl)-1-methyl-3,4,5,7a-tetrahydro-2H-indol-6-yl]oxy-hydroxy-phosphoryl]oxymethyl isopropyl carbonate], for which the “Prodrug (%)” value came out at 100.0% in series [1] (0 min); 63.0% in series [1] (10 min); 25.4% in series [1] (30 min); 7.1% in series [1] (60 min); 0.52% in series [1] (120 min); 0.01% in series [1] (240 min). The “Prodrug (%)” value is 100.0% in series [2] (0 min); 96.3% in series [2] (10 min); 98.8% in series [2] (30 min); 92.7% in series [2] (60 min); 88.2% in series [2] (120 min); 75.5% in series [2] (240 min).
Consider `COc1ccc([C@@]23CCC(OP4(=O)OCCCO4)=C[C@@H]2N(C)CC3)cc1OC` [Compound 422, 2-(((3aS,7aS)-3a-(3,4-dimethoxyphenyl)-1-methyl-2,3,3a,4,5,7a-hexahydro-1H-indol-6-yl)oxy)-1,3,2-dioxaphosphinane 2-oxide], for which the “Prodrug (%)” value was 100.0% in series [1] (0 min); above 99% in series [1] (10 min); above 99% in series [1] (30 min); above 99% in series [1] (60 min); 91.0% in series [1] (120 min); 76.8% in series [1] (240 min). Also, the “Prodrug (%)” value in series [2] (0 min) is 100.0%; in series [2] (10 min) it was 89.4%; in series [2] (30 min), 73.1%; in series [2] (60 min), 62.4%; in series [2] (120 min), 39.2%; in series [2] (240 min) it was 19.6%. Moreover, in series [3], the “t1/2” value is 6.1 h.
For `COc1ccc([C@@]23CCC(OP4(=O)OC(C)CC(C)O4)=C[C@@H]2N(C)CC3)cc1OC` (stereo partly drawn) [Compound 423, 2-(((3aS,7aS)-3a-(3,4-dimethoxyphenyl)-1-methyl-2,3,3a,4,5,7a-hexahydro-1H-indol-6-yl)oxy)-4,6-dimethyl-1,3,2-dioxaphosphinane 2-oxide], the “Prodrug (%)” value in series [1] (0 min) is 100.00%; in series [1] (10 min), above 99%; in series [1] (30 min), above 99%; in series [1] (60 min) it was 91.05%; in series [1] (120 min) it was 83.29%; in series [1] (240 min), 67.32%. In addition, the “Prodrug (%)” value in series [2] (0 min) was 100.00%; in series [2] (10 min) it was above 99%; in series [2] (30 min), above 99%; in series [2] (60 min) it was 98.77%; in series [2] (120 min), 97.80%; in series [2] (240 min), 89.67%. Also, in series [3], the “t1/2” value came to 0.95 h.

For the origin of these results see US20260015322A1, “DELIVERY OF THERAPEUTIC ALKALOID COMPOUNDS” (priority 2022, published 2026).
